{
  "source": "patent EP0037516A1",
  "about": "“N-omega substituted derivatives of 1-Desamino-vasopressin analogs” (VEGA LABORATORIES, INC., priority 1980, dated 1981)",
  "key": {"Factor VIII [1]": {"tested_on": "Factor VIII", "test": "Factor VIII releasing activity in pentothal-anesthetized dogs, standard clotting assay", "assay_type": "in vivo", "conditions": "for Factor VIII Releasing Activity: dogs", "description": "The 9-Ala-NH2 analogs of Examples XII and XIII were evaluated for ability to stimulate production of Factor VIII by administration to pentothal-anesthestized dogs. These analogs, as well as desmopressin used as a control, were administered i.v. into the external jugular vein at a dose of 10 meg/kg body weight. Factor VIII analysis was performed by standard clotting assay (using normal dog plasma as 100% clotting and severely hemophilic dog plasma as 0% for the standard curve) just prior to injection, and at periodic intervals for up to 4 hours after injection."}, "Factor VIII [2]": {"tested_on": "Factor VIII", "test": "Factor VIII release, clotting assay in male canine citrated plasma", "assay_type": "in vivo", "conditions": "male canine citrated plasma; calibrated against desmopressin", "description": "Pressor and antidiuretic assays of the compounds of Examples I-IV were carried out in 200g body weight, male Sprague-Dawley rats using the techniques reported by Schaechtelin et al in \"Enhancement of the Activity of Angiotensin II by Certain Cations,\" Molec. Pharmacol., 10, 57-67 (1974) and Cort et al in \"Role of the Disulfide Bridge and the C-Terminal Tripeptide in the Anti-diuretic Action of Vasopressin in Man and the Rat\", Kidney Internat. , 8, 292-302 (1975), with calibration of responses against a 3-point curve using highly purified arginine-vasopressin of known activity. Similar tests were performed on known vasopressin analogs for purposes of comparison. In addition, the release of Factor VIII by the compounds of Examples I-IV was tested in male canine citrated plasna using the clotting assay described by Prowse et al, in Brit. J. Haematol., 41, 437 (1979), and the results were calibrated against the Factor VIII releasing activity of desmopressin. In all cases, the half-lives of the responses were compared to the standard at equi-peak-potent levels."}, "[3]": {"test": "Pressor assay in rats, calibrated against arginine-vasopressin", "assay_type": "in vivo, male Sprague-Dawley rats"}, "[4]": {"test": "Antidiuretic assay in rats, calibrated against arginine-vasopressin", "assay_type": "in vivo, male Sprague-Dawley rats"}, "[5]": {"conditions": "200g male Sprague-Dawley rats, calibrated against arginine-vasopressin"}},
  "note": "Marks after values point to notes of the source that are not given here.",
  "data": [
    {"molecule": "Desmopressin [reference compound]", "values": [
      {"measurement": "Factor VIII Releasing Activity", "setting": "Factor VIII [1]; 15 min. after i.v. 10 meg/kg", "value": 125, "unit": "%"},
      {"measurement": "Factor VIII Releasing Activity", "setting": "Factor VIII [1]; 60 min. after i.v. 10 meg/kg", "value": 185, "unit": "%"},
      {"measurement": "Factor VIII Releasing Activity", "setting": "Factor VIII [1]; 120 min. after i.v. 10 meg/kg", "value": 125, "unit": "%"},
      {"measurement": "Factor VIII Releasing Activity", "setting": "Factor VIII [1]; 240 min. after i.v. 10 meg/kg", "value": 105, "unit": "%"},
      {"measurement": "Factor VIII Releasing Activity", "setting": "Factor VIII [1]; Pre-Injection, normal dog plasma = 100% clotting", "value": 98, "unit": "%"},
      {"measurement": "Factor VIII releasing activity (in words)", "setting": "Factor VIII [1]; comment on Table 6, 4 hours after injection", "value": "substantially decreased to zero at 4 hours"},
      {"measurement": "Factor VIII Releasing Activity", "setting": "Factor VIII [2]", "value": 250, "unit": "%"}
    ]},
    {"molecule": "NCC(=O)NCC(=O)NCC(=O)NCCCC[C@H](NC(=O)[C@@H]1CCCN1C(=O)[C@@H]1CSSCCC(=O)N[C@@H](Cc2ccc(O)cc2)C(=O)N[C@@H](Cc2ccccc2)C(=O)N[C@@H](CCC(N)=O)C(=O)N[C@@H](CC(N)=O)C(=O)N1)C(=O)NCC(N)=O", "note": "[Example II, 1-Desamino-[8-N^ε-Lys(Gly-Gly-Gly)]-Vasopressin]", "values": [
      {"measurement": "Peak Potency (pressor activity)", "setting": "[3]; [5]", "value": 15, "unit": "IU/mg"},
      {"measurement": "pressor activity (in words)", "setting": "[3]; comment on Table 3", "value": "prolonged pressor activity of higher potency than that of tGLVP"},
      {"measurement": "Mean Peak Potency (Product) F", "setting": "[3]; pressor activity, peak potency multiplied by F", "value": 157.5},
      {"measurement": "Ratio of Half-Life of Compound to Parent Half-Life (F)", "setting": "[3]; pressor response, as compared to 1-desamino-[8-Lys]-vasopressin (footnote ***)", "value": "10.5***"},
      {"measurement": "Peak Potency (antidiuretic activity)", "setting": "[4]; [5]", "value": 8, "unit": "IU/mg"},
      {"measurement": "Mean Peak Potency (Product) F", "setting": "[4]; antidiuretic activity, peak potency multiplied by F", "value": 44},
      {"measurement": "Ratio of Half-Life of Compound to Parent Half-Life (F)", "setting": "[4]; antidiuretic response, comparator not given", "value": 5.5},
      {"measurement": "antidiuretic activity (in words)", "setting": "[4]; comment on Table 4", "value": "low antidiuretic activity"},
      {"measurement": "Factor VIII Releasing Activity", "setting": "Factor VIII [2]", "value": 104, "unit": "%"}
    ]}
  ]
}
